pEC50: −log10 of the molar value.

This experiment has as its system NL-RLuc virus (HIV). The experiment can be described thus: Inhibition of HIV replication (NL-RLuc luciferase reporter virus in MT-2 cells). The experiment is classed as cell-based. The following applies: Human immunodeficiency virus 1, MT2, 120 h. An excerpt: Inhibition of HIV Replication
A recombinant NL-RLuc proviral clone was constructed in which a section of the nef gene from NL4-3 was replaced with the Renilla Luciferase gene. This virus is fully infectious and can undergo multiple cycles of replication in cell culture. In addition, the luciferous reporter provides a simple and easy method for quantitating the extent of virus growth and consequently, the antiviral activity of test compounds. The plasmid pNLRLuc contains the proviral NL-Rluc DNA cloned into pUC18 at the PvuII site. The NL-RLuc virus was prepared by transfection of 293T cells with the plasmid pNLRLuc. Transfections were performed using the LipofectAMINE PLUS kit from Invitrogen (Carlsbad, Calif.) according to the manufacturer and the virus generated was titered in MT-2 cells. For susceptibility analyses, the titrated virus was used to infect MT-2 cells in the presence of compound, and after 5 days of incubation, cells were processed and quantitated for virus growth by the amount of expressed luciferase. Assay media was RPMI 1640 supplemented with 10% heat inactivated fetal bovine serum (FBS), 100 units/ml penicillin G/100 units/ml streptomycin, 10 mM HEPES buffer pH 7.55 and 2 mM L-glutamine. The results from at least 2 experiments were used to calculate the EC50 values. Luciferase was quantitated using the Dual Luciferase kit from Promega (Madison, Wis.). Susceptibility of viruses to compounds was determined by incubation in the presence of serial dilutions of the compound. The 50% effective concentration (EC50) was calculated by using the exponential form of the median effect equation where (Fa)=1/[1+(ED50/drug conc.)^m] (Johnson V A, Byington R T. Infectivity Assay. In Techniques in HIV Research. ed. Aldovini A, Walker B D. 71-76. New York: Stockton Press. 1990).
In general terms: A reporter such as luciferase makes a cellular process visible.

In general, pEC50 refers to the EC50 on a negative log10 scale, so that one unit is a factor of ten. A higher pEC50 goes with a small EC50. As to `Cc1nc(C)c([C@H](OC(C)(C)C)C(=O)O)c(N2CCC(C)(C)CC2)c1-c1ccc2c(c1)c(OCc1ccc(F)cc1)cc(=O)n2C` [Example 20, (S)-2-(tert-butoxy)-2-(4-(4,4-dimethylpiperidin-1-yl)-5-(4-((4-fluorobenzyl)oxy)-1-methyl-2-oxo-1,2-dihydroquinolin-6-yl)-2,6-dimethylpyridin-3-yl)acetic acid], the pEC50 is 7.06. As to `Cc1nc(C)c([C@H](OC(C)(C)C)C(=O)O)c(N2CCC(C)(C)CC2)c1-c1ccc2c(c1)CN(Cc1ccc(F)cc1)C2` [Example 21, (S)-2-(tert-butoxy)-2-(4-(4,4-dimethylpiperidin-1-yl)-5-(2-(4-fluorobenzyl)isoindolin-5-yl)-2,6-dimethylpyridin-3-yl)acetic acid], the negative-log EC50 (pEC50) was 7.52. In the case of `Cc1nc(C)c([C@H](OC(C)(C)C)C(=O)O)c(N2CCC(C)(C)CC2)c1-c1ccc2c(c1)CN(C(=O)c1ccc(F)cc1)C2` [Example 22, (S)-2-(tert-butoxy)-2-(4-(4,4-dimethylpiperidin-1-yl)-5-(2-(4-fluorobenzoyl)isoindolin-5-yl)-2,6-dimethylpyridin-3-yl)acetic acid] it was 7.28; in that of `CCOc1ccc(S(=O)(=O)N2Cc3ccc(-c4c(C)nc(C)c([C@H](OC(C)(C)C)C(=O)O)c4N4CCC(C)(C)CC4)cc3C2)cc1` [Example 23, (S)-2-(tert-butoxy)-2-(4-(4,4-dimethylpiperidin-1-yl)-5-(2-((4-ethoxyphenyl)sulfonyl)isoindolin-5-yl)-2,6-dimethylpyridin-3-yl)acetic acid], 7.77.

`COc1ccc(S(=O)(=O)N2Cc3ccc(-c4c(C)nc(C)c([C@H](OC(C)(C)C)C(=O)O)c4N4CCC(C)(C)CC4)cc3C2)cc1` [Example 24, (S)-2-(tert-butoxy)-2-(4-(4,4-dimethylpiperidin-1-yl)-5-(2-((4-methoxyphenyl)sulfonyl)isoindolin-5-yl)-2,6-dimethylpyridin-3-yl)acetic acid] gave a negative-log EC50 (pEC50) of 8.00. With `Cc1nc(C)c([C@H](OC(C)(C)C)C(=O)O)c(N2CCC(C)(C)CC2)c1-c1ccc2c(c1)CC/C(=C\c1ccc(F)cc1)C2` [Example 25, (S,E)-2-(tert-Butoxy)-2-(4-(4,4-dimethylpiperidin-1-yl)-5-(6-(4-fluorobenzylidene)-5,6,7,8-tetrahydronaphthalen-2-yl)-2,6-dimethylpyridin-3-yl)acetic acid], the pEC50 was 8.30. Molecule `Cc1nc(C)c([C@H](OC(C)(C)C)C(=O)O)c(N2CCC(C)(C)CC2)c1-c1ccc2c(c1)CCC(Cc1ccc(F)cc1)C2` (stereo partly drawn) [Example 26, (2S)-2-(tert-Butoxy)-2-(4-(4,4-dimethylpiperidin-1-yl)-5-(6-(4-fluorobenzyl)-5,6,7,8-tetrahydronaphthalen-2-yl)-2,6-dimethylpyridin-3-yl)acetic acid] gave a pEC50 of 8.00.

In turn, `Cc1nc(C)c([C@H](OC(C)(C)C)C(=O)O)c(N2CCC(C)(C)CC2)c1-c1ccc2c(c1)CCC(Oc1ccc(F)cc1)C2` (stereo partly drawn) [Example 27, (2S)-2-(tert-Butoxy)-2-(4-(4,4-dimethylpiperidin-1-yl)-5-(6-(4-fluorophenoxy)-5,6,7,8-tetrahydronaphthalen-2-yl)-2,6-dimethylpyridin-3-yl)acetic acid] gave a pEC50 of 8.22. For `Cc1nc(C)c([C@H](OC(C)(C)C)C(=O)O)c(N2CCC(C)(C)CC2)c1-c1ccc2c(c1)CC[C@@H](Cc1ccc(F)c(F)c1)O2` [Example 28, (S)-2-tert-Butoxy-2-(5-((S)-2-(3,4-difluorobenzyl)chroman-6-yl)-4-(4,4-dimethylpiperidin-1-yl)-2,6-dimethylpyridin-3-yl)acetic acid], the pEC50 is 8.70. For the molecule `Cc1nc(C)c([C@H](OC(C)(C)C)C(=O)O)c(N2CCC(C)(C)CC2)c1-c1ccc2c(c1)CC[C@H](Cc1ccc(F)c(F)c1)O2` [Example 29, (S)-2-tert-Butoxy-2-(5-((R)-2-(3,4-difluorobenzyl)chroman-6-yl)-4-(4,4-dimethylpiperidin-1-yl)-2,6-dimethylpyridin-3-yl)acetic acid], the pEC50 is 8.30. Consider `Cc1ccc(C[C@@H]2CCc3cc(-c4c(C)nc(C)c([C@H](OC(C)(C)C)C(=O)O)c4N4CCC(C)(C)CC4)ccc3O2)c(F)c1` [Example 30, (S)-2-tert-Butoxy-2-(4-(4,4-dimethylpiperidin-1-yl)-5-((S)-2-(2-fluoro-4-methylbenzyl)chroman-6-yl)-2,6-dimethylpyridin-3-yl)acetic acid], for which the pEC50 was 8.30.

As for `Cc1ccc(C[C@H]2CCc3cc(-c4c(C)nc(C)c([C@H](OC(C)(C)C)C(=O)O)c4N4CCC(C)(C)CC4)ccc3O2)c(F)c1` [Example 31, (S)-2-tert-Butoxy-2-(4-(4,4-dimethylpiperidin-1-yl)-5-((R)-2-(2-fluoro-4-methylbenzyl)chroman-6-yl)-2,6-dimethylpyridin-3-yl)acetic acid], the pEC50 was 8.52. In the case of `Cc1nc(C)c([C@H](OC(C)(C)C)C(=O)O)c(N2CCC(C)(C)CC2)c1-c1ccc2c(c1)CC[C@@H](Cc1ccccc1)O2` [Example 32, (S)-2-(5-((S)-2-Benzylchroman-6-yl)-4-(4,4-dimethylpiperidin-1-yl)-2,6-dimethylpyridin-3-yl)-2-tert-butoxyacetic acid] it was 8.70. Regarding `Cc1nc(CO)c(-c2ccc3c(c2)CC[C@@H](Cc2ccccc2)O3)c(N2CCC(C)(C)CC2)c1[C@H](OC(C)(C)C)C(=O)O` [Example 33, (S)-2-(5-((S)-2-Benzylchroman-6-yl)-4-(4,4-dimethylpiperidin-1-yl)-6-(hydroxymethyl)-2-methylpyridin-3-yl)-2-tert-butoxyacetic acid], the negative logarithm of the EC50 (pEC50) was 8.15. In the case of `Cc1nc(C)c([C@H](OC(C)(C)C)C(=O)O)c(N2CCC(C)(C)CC2)c1-c1ccc2c(c1)CC[C@@H](Cc1ccc(F)cc1)O2` [Example 34, (S)-2-tert-Butoxy-2-(4-(4,4-dimethylpiperidin-1-yl)-5-((S)-2-(4-fluorobenzyl)chroman-6-yl)-2,6-dimethylpyridin-3-yl)acetic acid] it was 8.70; in that of `Cc1nc(C)c([C@H](OC(C)(C)C)C(=O)O)c(N2CCC(C)(C)CC2)c1-c1ccc2c(c1)CC[C@H](Cc1ccc(F)cc1)O2` [Example 35, (S)-2-tert-Butoxy-2-(4-(4,4-dimethylpiperidin-1-yl)-5-((R)-2-(4-fluorobenzyl)chroman-6-yl)-2,6-dimethylpyridin-3-yl)acetic acid], 8.52. For `Cc1nc(CO)c(-c2ccc3c(c2)CC[C@@H](Cc2ccc(F)cc2)O3)c(N2CCC(C)(C)CC2)c1[C@H](OC(C)(C)C)C(=O)O` [Example 36, (S)-2-(tert-Butoxy)-2-(4-(4,4-dimethylpiperidin-1-yl)-5-((S)-2-(4-fluorobenzyl)chroman-6-yl)-6-(hydroxymethyl)-2-methylpyridin-3-yl)acetic acid], the pEC50 is 8.70.

As to `Cc1nc(CO)c(-c2ccc3c(c2)CC[C@H](Cc2ccc(F)cc2)O3)c(N2CCC(C)(C)CC2)c1[C@H](OC(C)(C)C)C(=O)O` [Example 37, (S)-2-tert-Butoxy-2-(4-(4,4-dimethylpiperidin-1-yl)-5-((R)-2-(4-fluorobenzyl)chroman-6-yl)-6-(hydroxymethyl)-2-methylpyridin-3-yl)acetic acid], the pEC50 is 9.00.

Turning to `Cc1nc(C)c([C@H](OC(C)(C)C)C(=O)O)c(N2CCC(C)(C)CC2)c1-c1ccc2c(c1)CC[C@](C)(Cc1ccc(F)cc1)O2` [Example 38, (S)-2-tert-Butoxy-2-(4-(4,4-dimethylpiperidin-1-yl)-5-((R)-2-(4-fluorobenzyl)-2-methylchroman-6-yl)-2,6-dimethylpyridin-3-yl)acetic acid], the negative logarithm of the EC50 (pEC50) was 8.40.

`Cc1nc(C)c([C@H](OC(C)(C)C)C(=O)O)c(N2CCC(C)(C)CC2)c1-c1ccc2c(c1)CC[C@@](C)(Cc1ccc(F)cc1)O2` [Example 39, (S)-2-tert-Butoxy-2-(4-(4,4-dimethylpiperidin-1-yl)-5-((S)-2-(4-fluorobenzyl)-2-methylchroman-6-yl)-2,6-dimethylpyridin-3-yl)acetic acid] gave a pEC50 of 8.52. In the case of `Cc1nc(C)c([C@H](OC(C)(C)C)C(=O)O)c(N2CCC(C)(C)CC2)c1-c1ccc2c(c1)CCC(COc1ccccc1F)O2` (stereo partly drawn) [Example 40, (2S)-2-tert-Butoxy-2-(4-(4,4-dimethylpiperidin-1-yl)-5-(2-((2-fluorophenoxy)methyl)chroman-6-yl)-2,6-dimethylpyridin-3-yl)acetic acid] it was 8.40; in that of `Cc1nc(C)c([C@H](OC(C)(C)C)C(=O)O)c(N2CCC(C)(C)CC2)c1-c1ccc2c(c1)CCC(COc1cccc(F)c1F)O2` (stereo partly drawn) [Example 41, (2S)-2-tert-Butoxy-2-(5-(2-((2,3-difluorophenoxy)methyl)chroman-6-yl)-4-(4,4-dimethylpiperidin-1-yl)-2,6-dimethylpyridin-3-yl)acetic acid], 8.52. The molecule `Cc1nc(C)c([C@H](OC(C)(C)C)C(=O)O)c(N2CCC(C)(C)CC2)c1-c1ccc2c(c1)CCC(c1ccc(F)cc1)O2` (stereo partly drawn) [Example 42, (2S)-2-tert-Butoxy-2-(4-(4,4-dimethylpiperidin-1-yl)-5-(2-(4-fluorophenyl)chroman-6-yl)-2,6-dimethylpyridin-3-yl)acetic acid] had a pEC50 of 8.15.

The values are drawn from patent US10407410B2, “Pyridin-3-yl acetic acid derivatives as inhibitors of human immunodeficiency virus replication” (priority 2016, dated 2019).
